Patent publication US6653300B2, “Pyrazole compounds useful as protein kinase inhibitors” (Vertex Pharmaceuticals Incorporated, priority 2000, dated 2003)
Values joined by “and” are separate entries in the source; they are usually repeats but may differ in a detail not shown here. Equal values may be shown once.

Experiments:
Aurora-2 = target: T1, Aurora-2 (Homo sapiens, UniProt O14965); experiment: Ki determination for the inhibition of Aurora-2 (coupled enzyme assay); format: biochemical; conditions: 70 nM Aurora-2, 30° C.
T1 sequence (O14965 1-403): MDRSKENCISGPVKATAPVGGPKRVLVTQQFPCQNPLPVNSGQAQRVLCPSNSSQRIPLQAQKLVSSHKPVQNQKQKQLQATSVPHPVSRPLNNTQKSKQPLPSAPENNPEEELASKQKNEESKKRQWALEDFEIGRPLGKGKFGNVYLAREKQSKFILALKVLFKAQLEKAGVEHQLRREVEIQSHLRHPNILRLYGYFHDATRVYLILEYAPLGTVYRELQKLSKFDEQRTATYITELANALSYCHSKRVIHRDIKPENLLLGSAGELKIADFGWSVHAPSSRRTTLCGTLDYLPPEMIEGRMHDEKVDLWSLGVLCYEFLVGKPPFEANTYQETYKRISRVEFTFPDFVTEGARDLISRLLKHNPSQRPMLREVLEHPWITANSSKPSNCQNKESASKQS
Description: Compounds were screened in the following manner for their ability to inhibit Aurora-2 using a standard coupled enzyme assay (Fox et al (1998) Protein Sci 7, 2249).
To an assay stock buffer solution containing 0.1M HEPES 7.5, 10 mM MgCl2, 1 mM DTT, 25 mM NaCl, 2.5 mM phosphoenolpyruvate, […], 30 mg/ml pyruvate kinase, 10 mg/ml lactate dehydrogenase, […], and 800 μM peptide (LRRASLG, American Peptide, Sunnyvale, Calif.) was added a DMSO solution of a compound of the present invention to a final concentration of 30 μM. The resulting mixture was incubated at 30° C. for 10 min. The reaction was initiated by the addition of 10 μL of Aurora-2 stock solution to give a final concentration of 70 nM in the assay. The rates of reaction were obtained by monitoring absorbance at 340 nm over a 5 minute read time at 30° C. using a BioRad Ultramark plate reader (Hercules, Calif.). The Ki values were determined from the rate data as a function of inhibitor concentration.

GSK-3β (AA 1-420) = target: T2, GSK-3β (AA 1-420) (Homo sapiens, UniProt P49841); experiment: Ki determination for the inhibition of GSK-3 (coupled enzyme system); format: biochemical; conditions: 20 μM ATP, 20 nM GSK-3β, 30° C.
T2 construct: GSK-3β (AA 1-420)
T2 sequence (P49841 whole entry, the tested form may be a part): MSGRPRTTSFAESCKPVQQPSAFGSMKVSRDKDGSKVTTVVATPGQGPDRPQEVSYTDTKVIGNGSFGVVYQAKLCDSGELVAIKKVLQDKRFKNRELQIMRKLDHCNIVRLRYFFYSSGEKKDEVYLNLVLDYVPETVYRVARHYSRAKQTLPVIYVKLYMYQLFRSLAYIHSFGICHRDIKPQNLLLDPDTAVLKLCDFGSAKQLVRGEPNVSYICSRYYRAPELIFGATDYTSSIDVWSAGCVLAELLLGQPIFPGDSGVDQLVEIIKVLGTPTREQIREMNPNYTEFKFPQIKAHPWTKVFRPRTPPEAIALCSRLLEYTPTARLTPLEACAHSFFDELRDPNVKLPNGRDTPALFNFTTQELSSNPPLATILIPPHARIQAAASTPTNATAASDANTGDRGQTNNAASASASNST
Outline: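 GSK-3β (AA 1-420, 20 nM) was run in a pyruvate kinase/LDH-coupled NADH assay in 100 mM HEPES pH 7.5, 10 mM MgCl2, 25 mM NaCl, 1 mM DTT, 1.5% DMSO, with 300 μM phosphopeptide substrate. Compound (0.002–30 μM) was preincubated 10 min at 30° C, then 20 μM ATP was added.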

SMILES | melting point | Ki (Aurora-2) [nM] | Ki (GSK-3β (AA 1-420))
Cc1cc(Nc2nc(Sc3cccc(Br)c3)nc3ccccc23)n[nH]1 [IIa-47, [2-(3-Bromophenylsulfanyl)-quinazolin-4-yl]-(5-methyl-2H-pyrazol-3-yl)-amine] | 280 to 281 °C | < 100 | < 100 nM
CS(=O)(=O)Nc1ccc(Sc2nc(Nc3cc(C4CC4)[nH]n3)c3ccccc3n2)cc1 [IIa-61, (5-Cycloprpyl-2H-pyrazol-3-yl)-[2-(4-methylsulfonylamino-phenylsulfanyl)-quinazolin-4-yl]-amine] | 235 to 238 °C | < 100 | < 100 nM
Cc1cc(Nc2nc(Sc3ccc(C(=O)NCCN(C)C)cc3)nc3ccccc23)n[nH]1 [IIa-67, {2-[4-(2-Dimethylamino-ethylcarbamoyl)-phenylsulfanyl]-quinazolin-4-yl}-(5-methyl-2H-pyrazol-3-yl)-amine] | 192 to 193 °C | 100 to 1000 | 1000 to 7000 nM
Cc1cc(Nc2nc(Sc3ccc(NS(C)(=O)=O)cc3)nc3c(O)cccc23)n[nH]1 [IIa-69, [8-Hydroxy-2-(4-methylsulfonylamino-phenylsulfanyl)-quinazolin-4-yl]-(5-methyl-2H-pyrazol-3-yl)-amine] | 291 to 293 °C | < 100 | 100 to 1000 nM
Cc1cc(Nc2nc(Sc3ccc(NC(=O)CN(C)C(=O)OC(C)(C)C)cc3)nc3ccccc23)n[nH]1 [IIa-76, (2-{4-[2-(tert-Butoxycarbonyl-methyl-amino)-acetylamino]-phenylsulfanyl}-quinazolin-4-yl)-(5-methyl-2H-pyrazol-3-yl)-amine] | 228 to 229 °C (dec.) | < 100 | 1000 to 7000 nM
Cc1cc(Nc2nc(NC3CCCCC3)nc3ccccc23)n[nH]1 [IIc-6, (2-Cyclohexylamino-quinazolin-4-yl)-(5-methyl-2H-pyrazol-3-yl)-amine] | 280 °C (dec.) | < 100 | < 100 nM and 100 to 1000 nM
Cc1cc(Nc2nc(Nc3ccc4c(c3)OCCO4)nc3ccccc23)n[nH]1 [IIc-7, [2-(2,3-Dihydrobenzo[1,4]dioxin-6-ylamino)-quinazolin-4-yl]-(5-methyl-2H-pyrazol-3-yl)-amine] | > 250 °C | < 100 | 100 to 1000 nM
Cc1cc(Nc2nc(Nc3cccc(O)c3)nc3ccccc23)n[nH]1 [IIc-17, [2-(3-Hydroxyphenylamino)-quinazolin-4-yl]-(5-methyl-2H-pyrazol-3-yl)-amine] | > 250 °C | < 100 | 100 to 1000 nM
COc1ccc(Nc2nc(Nc3cc(C4CC4)[nH]n3)c3ccccc3n2)cn1 [IIc-20, (5-Cyclopropyl-2H-pyrazol-3-yl)-[2-(6-methoxypyridin-3-ylamino)-quinazolin-4-yl]-amine] | 120 °C | < 100 | < 100 nM
CCCc1ccc(Nc2nc(Nc3cc(C4CC4)n[nH]3)c3ccccc3n2)cc1 [IIc-26, (5-Cyclopropyl-2H-pyrazol-3-yl)-[2-(4-propylphenylamino)-quinazolin-4-yl]-amine] | 255 to 256 °C | < 100 | 100 to 1000 nM
O=C(O)Cc1ccc(Nc2nc(Nc3cc(C4CC4)[nH]n3)c3ccccc3n2)cc1 [IIc-36, [2-(4-Carboxymethylphenylamino)-quinazolin-4-yl]-(5-cyclopropyl-2H-pyrazol-3-yl)-amine] | > 210 °C (dec.) | < 100 | < 100 nM
O=C(O)c1cccc(Nc2nc(Nc3cc(C4CC4)[nH]n3)c3ccccc3n2)c1 [IIc-40, [2-(3-Carboxyphenylamino)-quinazolin-4-yl]-(5-cyclopropyl-2H-pyrazol-3-yl)-amine] | 298 to 302 °C | < 100 | 100 to 1000 nM
c1ccc(CCCNc2nc(Nc3cc(C4CC4)[nH]n3)c3ccccc3n2)cc1 [IIc-47, (5-Cyclopropyl-2H-pyrazol-3-yl)-[2-(3-phenylprop-1-ylamino)-quinazolin-4-yl]-amine] | 189 °C | < 100 | 100 to 1000 nM

Second part, the molecule after the results:

melting point | Ki (Aurora-2) [nM] | Ki (GSK-3β (AA 1-420)) | SMILES
285 to 287 °C | < 100 | 1000 to 7000 nM | Cc1cc(Nc2nc(Sc3ccc(NC(=O)C(C)C)cc3)nc3ccccc23)n[nH]1 [IIa-49, [2-(4-Isobutyrylamino-phenylsulfanyl)-quinazolin-4-yl]-(5-methyl-2H-pyrazol-3-yl)-amine]
> 300 °C | < 100 | 100 to 1000 nM | Cc1cc(Nc2nc(Sc3ccc(N)cc3)nc3ccccc23)n[nH]1 [IIa-62, [2-(4-Amino-phenylsulfanyl)-quinazolin-4-yl]-(5-methyl-2H-pyrazol-3-yl)-amine]
240 to 243 °C | < 100 | 1000 to 7000 nM | Cc1cc(Nc2nc(Sc3ccc(NC(=O)CCCN4CCOCC4)cc3)nc3ccccc23)n[nH]1 [IIa-64, (5-Methyl-2H-pyrazol-3-yl)-{2-[4-(4-morpholin-4-yl-butyrylamino)-phenylsulfanyl]-quinazolin-4-yl}-amine]
275 to 277 °C | < 100 | 100 to 1000 nM | COc1cccc2c(Nc3cc(C)[nH]n3)nc(Sc3ccc(NS(C)(=O)=O)cc3)nc12 [IIa-66, [8-Methoxy-2-(4-methylsulfonylamino-phenylsulfanyl)-quinazolin-4-yl]-(5-methyl-2H-pyrazol-3-yl)-amine]
265 to 268 °C | < 100 | 1000 to 7000 nM | COc1cccc2c(Nc3cc(C4CC4)[nH]n3)nc(Sc3ccc(NC(C)=O)cc3)nc12 [IIa-72, [2-(4-Acetamido-phenylsulfanyl)-8-methoxy-quinazolin-4-yl]-(5-cyclopropyl-2H-pyrazol-3-yl)-amine]
277 to 278 °C | < 100 | 100 to 1000 nM | COc1ccc(Oc2nc(Nc3cc(C)[nH]n3)c3ccccc3n2)cc1OC [IIb-7, [2-(3,4-Dimethoxyphenoxy)-quinazolin-4-yl]-(5-methyl-2N-pyrazol-3-yl)-amine]
296 to 299 °C (dec.) | < 100 | < 100 nM | Cc1cc(Nc2nc(Oc3ccc4c(c3)OCO4)nc3ccccc23)n[nH]1 [IIb-8, [2-(Benzo[1,3]dioxol-5-yloxy)-quinazolin-4-yl]-(5-methyl-2H-pyrazol-3-yl)-amine]
225 to 227 °C | < 100 | 100 to 1000 nM | Cc1cc(Nc2nc(NCc3ccccc3)nc3ccccc23)n[nH]1 [IIc-5, (2-Benzylamino-quinazolin-4-yl)-(5-methyl-2H-pyrazol-3-yl)-amine]
> 250 °C | < 100 | < 100 nM | Cc1cc(Nc2nc(Nc3ccc(Cl)cc3)nc3ccccc23)n[nH]1 [IIc-12, [2-(4-Chlorophenylamino)-quinazolin-4-yl]-(5-methyl-2H-pyrazol-3-yl)-amine]
222 °C | 100 to 1000 | 100 to 1000 nM | Cc1cc(Nc2nc(Nc3ccccc3CCO)nc3ccccc23)n[nH]1 [IIc-14, {2-[2-(2-Hydroxyethyl)phenylamino]-quinazolin-4-yl}-(5-methyl-2H-pyrazol-3-yl)-amine]
> 250 °C | < 100 | 100 to 1000 nM | Cc1cc(Nc2nc(Nc3cccc(CO)c3)nc3ccccc23)n[nH]1 [IIc-16, [2-(3-Hydroxymethylphenylamino)-quinazolin-4-yl]-(5-methyl-2H-pyrazol-3-yl)-amine]
> 250 °C | < 100 | 100 to 1000 nM | c1ccc2c(Nc3cc(C4CC4)[nH]n3)nc(NCCC3CCCCC3)nc2c1 [IIc-29, [2-(2-Cyclohexylethylamino)-quinazolin-4-yl]-(5-cyclopropyl-2H-pyrazol-3-yl)-amine]
> 250 °C | < 100 | < 100 nM | O=C(O)COc1ccc(Nc2nc(Nc3cc(C4CC4)[nH]n3)c3ccccc3n2)cc1 [IIc-30, [2-(4-Carboxymethoxyphenylamino)-quinazolin-4-yl]-(5-cyclopropyl-2H-pyrazol-3-yl)-amine]
251 °C | < 100 | 100 to 1000 nM | CC(=O)Nc1ccc(Nc2nc(Nc3cc(C)[nH]n3)c3ccccc3n2)cc1C [IIc-48, [2-(4-acetamido-3-methylphenylamino)-quinazolin-4-yl]-(5-methyl-2H-pyrazol-3-yl)-amine]
